Values after ≈ are worked out from the molar mass of the structure shown. Like-named read-outs stand apart in the source and are kept apart here.
Experiments:
[1] = Degree of conversion of anhydrous carbamazepine to carbamazepine dihydrate in suspension (DSC); assay type: physicochemical
Experimental: Suspensions of carbamazepine (5% w/v) containing water or 1% SDS aqueous solution were shaken at 37° C. with stirring (50 rpm). Samples from the sediment were taken after 1 day, dried at room temperature for 2 days, and analyzed by differential scanning calorimetry, X-ray powder diffraction and scanning electron microscopy (SEM). Carbamazepine anhydrous powder was analyzed using the same methods.
(§1) Analysis of carbamazepine in HPMC solutions and in dry mixtures of HPMC was performed. Suspension of carbamazepine (5% w/v) containing 1% SDS aqueous solution with Methocel K4M at different concentrations, namely 0.5, 1, 2, 5 and 10 mg,/ml were shaken for 1-7 days at 37° C. with stirring (50 rpm). Samples from the sediment were taken, at various time intervals, dried at room temperature for 2 days and analyzed by DSC, X-ray powder diffraction and SEM.
The degree of conversion of anhydrous carbamazepine to the dihydrate form, measured by DSC, was calculated according to the ratio obtained from the dehydration enthalpies of carbamazepine suspended in 1% SDS aqueous Methocel solution and 1% SDS aqueous solution without Methocel. Dry mixtures containing different ratios of HPMC (Methocel K4M) and carbamazepine were also analyzed by DSC in order to investigate the influence of HPMC on the polymorphic transformation of carbamazepine.
(§2) The thermal analysis of the samples was performed using a Differential Scanning Calorimeter (DSC, Mettler TA4000 with measuring cell DSC 30E, Switzerland). Samples were measured into aluminum pans. Lids were crimped and holes were made in lids in order to allow dehydration of samples. The thermal behavior of the samples was studied under nitrogen purge at heating rates of 10° C. min^-1 over a temperature range of 0° C. to 250° C. When the glass transition temperature of HPMC was examined the heating rate was 0.5° C. min^-1.

[2] = Solubility of carbamazepine in medium; assay type: physicochemical; details: read-out: Drug solubility
Excerpt: Results are seen in FIG. 12.

[3] = Crystal morphology and structure of carbamazepine from HPMC solutions (SEM, X-ray diffraction); assay type: physicochemical; details: for X-ray diffraction: crystal form of carbamazepine: 1 day
Experimental: as §1
(§3) X-ray powder diffraction of the samples was recorded by Philips automated diffractometer using Cu-K α radiation (40 kV, 35 mA) at a scanning rate of 0.5° per 20 min^-1.
Samples of hydrated tablets were sliced across the gel layer. The samples were washed and then treated with increasing concentration of ethanol, 5 minutes at each concentration, for dehydration. In order to complete the dehydration the samples were transferred in solution of freon 113:ethanol with increasing concentrations of freon (25, 50, 75, 100%). The samples with 100% freon were incubated in the hood for 0.5 hour. The cross-sectioned tablets were mounted on stubs and coated with a polaron sputter coater, Model E5100. The film thickness obtained was approximately 75 Å. Scanning electron photomicrographs were recorded using a Philips 505 SEM, applying voltage of […]. Samples of powders were coated and analyzed under the same conditions described for the hydrated tablets.

[4] = Crystal morphology and structure of carbamazepine in the gel layer of hydrated tablets (DSC, X-ray, SEM); assay type: physicochemical; details: for SEM: form of carbamazepine in the gel layer: 50% Methocel K4M
Experimental: Gel layers of the tablets were analyzed. Tablets were hydrated using the USP Basket Method I under the same conditions described in the dissolution studies. At various time intervals the tablets were removed from the baskets, the gel layer was scratched and dried at room temperature for at least 24 hours. The gel layer was analyzed by DSC, X-ray powder diffraction and scanning electron microscopy (SEM). Used analytical methods are described in Example 4.
Tablets containing 50% carbamazepine and 50% Methocel K4M were prepared and hydrated in medium containing 1% SDS in water, using tablet dissolution tester at the same conditions used for measurements of the release rate of the drug.
At various time intervals the tablets were removed and the gel layer was peeled, dried at room temperature and analyzed by DSC, X-ray and SEM. For comparison, a suspension containing carbamazepine in 1% SDS water solution was prepared and the crystals obtained were analyzed by DSC, X-ray and SEM.
as §2, §3
Samples of hydrated tablets were sliced across the gel layer. The samples were washed and then treated with increasing concentration of ethanol, 5 minutes at each concentration, for dehydration. […] Scanning electron photomicrographs were recorded using a Philips 505 SEM, applying voltage of […]. Samples of powders were coated and analyzed under the same conditions described for the hydrated tablets.

[5] = after 1 hour, in the presence of water; cited from earlier work
[6] = anhydrous carbamazepine; cited from earlier work

Degree of conversion of carbamazepine to carbamazepine dihydrate ([1]; 5 mg/ml Methocel K4M, time 1 day): 0% | Degree of conversion of carbamazepine to carbamazepine dihydrate ([1]; 5 mg/ml Methocel K4M, time 2 days): 0.97% | Degree of conversion of carbamazepine to carbamazepine dihydrate ([1]; 5 mg/ml Methocel K4M, time 3 days): 8.8% | Degree of conversion of carbamazepine to carbamazepine dihydrate ([1]; 5 mg/ml Methocel K4M, time 4 days): 21.5% | Degree of conversion of carbamazepine to carbamazepine dihydrate ([1]; 5 mg/ml Methocel K4M, time 7 days): 100% | Degree of conversion of carbamazepine to carbamazepine dihydrate ([1]; Methocel K4M 0 mg/ml, 24 hours, 1% SDS, 37° C.): 100% | Degree of conversion of carbamazepine to carbamazepine dihydrate ([1]; Methocel K4M 0.5 mg/ml, 24 hours, 1% SDS, 37° C.): 77.0% | Degree of conversion of carbamazepine to carbamazepine dihydrate ([1]; Methocel K4M 1 mg/ml, 24 hours, 1% SDS, 37° C.): 23.1% | Degree of conversion of carbamazepine to carbamazepine dihydrate ([1]; Methocel K4M 2 mg/ml, 24 hours, 1% SDS, 37° C.): 0% | Degree of conversion of carbamazepine to carbamazepine dihydrate ([1]; Methocel K4M 5 mg/ml, 24 hours, 1% SDS, 37° C.): 0% | Degree of conversion of carbamazepine to carbamazepine dihydrate ([1]; Methocel K4M 10 mg/ml, 24 hours, 1% SDS, 37° C.): 0% | Transformation of carbamazepine to dihydrate ([1]; after 7 days, all examined Methocel K4M concentrations): transformed completely to dihydrate | Conversion of anhydrous carbamazepine to dihydrate (DSC thermograms) ([1]; suspended in water, without HPMC): completely converted to dihydrate | solubility ([2]; 0.5% sds in water): 1470 µg/mL (≈ 6.21 mM) | solubility ([2]; 1% sds in water): 3300 µg/mL (≈ 14 mM) | X-ray diffraction: crystal form of carbamazepine ([3]; 10 mg/ml Methocel K4M solution): solely the anhydrous form | SEM: appearance of carbamazepine crystals from HPMC solutions ([3]; 1, 5 or 10 mg/ml HPMC, 1 and 7 days): appear to be amorphous | SEM: form of carbamazepine in the gel layer ([4]; 6 hours of hydration): transformed to an amorphous form | SEM: form of carbamazepine in the gel layer ([4]; 20 hours hydration): showed the same behavior | Transformation of carbamazepine to the dihydrate form in the gel layer ([4]; hydrated tablets containing 50% polymer, 6 and 20 hours): inhibited
SMILES: NC(=O)N1c2ccccc2C=Cc2ccccc21 [carbamazepine]
X-ray diffraction: crystal form of carbamazepine ([3]; 1 mg/ml Methocel K4M solution): mixture of carbamazepine and carbamazepine dihydrate crystals | Conversion to carbamazepine dihydrate complete [5]: 95% | Solubility in water [6]: practically insoluble in water
